Eleven compounds from patent US7220741B2, “1,4-diazabicycloalkane derivatives, their preparation and use” (NeuroSearch A/S, priority 2002, dated 2007) can be followed below.

Structures can show the parent of a compound that is named as a salt.

The target in one data set is T1, α7-subtype of nicotinic receptors (Rattus norvegicus, UniProt Q05941).
T1 construct: Cerebral cortices from male Wistar rats (150–250 g) are homogenised; from tissue; host or cells: rat cerebral cortex membrane homogenate (male Wistar rats)
T1 sequence (Q05941 23-502): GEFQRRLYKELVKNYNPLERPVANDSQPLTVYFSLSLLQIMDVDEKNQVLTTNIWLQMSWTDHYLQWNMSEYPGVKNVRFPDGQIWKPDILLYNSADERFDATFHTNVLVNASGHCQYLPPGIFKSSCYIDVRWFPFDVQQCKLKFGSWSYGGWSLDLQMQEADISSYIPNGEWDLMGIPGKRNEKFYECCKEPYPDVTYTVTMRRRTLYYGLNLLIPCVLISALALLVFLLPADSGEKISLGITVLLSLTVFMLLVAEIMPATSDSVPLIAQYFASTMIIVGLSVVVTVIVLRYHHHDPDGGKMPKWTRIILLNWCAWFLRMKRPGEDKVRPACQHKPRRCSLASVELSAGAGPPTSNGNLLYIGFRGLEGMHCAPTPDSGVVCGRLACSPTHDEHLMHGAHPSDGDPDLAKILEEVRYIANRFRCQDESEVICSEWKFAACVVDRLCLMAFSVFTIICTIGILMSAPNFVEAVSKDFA
As to the kind of experiment: In vitro inhibition of 3H-α-bungarotoxine binding in rat brain. The following applies: cerebral cortices from male Wistar rats, homogenate; 3H-α-bungarotoxine 2 nM; 2 hours at 37° C.
As usually defined, the IC50 is the concentration that inhibits the measured activity by half. `c1ccc(-c2nnc(N3CCN4CCC3CC4)s2)cc1` [Compound 1A, 4-(5-Phenyl-1,3,4-thiadiazol-2-yl)-1,4-diazabicyclo[3.2.2]nonane fumaric acid salt] registered an IC50 of 6.7 nM.

On to `c1ccc(-c2nnc(N3CCN4CCC3CC4)o2)cc1` [Compound D1, 4-(5-Phenyl-1,3,4-oxadiazol-2-yl)-1,4-diazabicyclo[3.2.2]nonane fumaric acid salt], for which the IC50 came to 5.8 nM.

As for `O=C(O)/C=C/C(=O)O.c1csc(-c2nnc(N3CCN4CCC3CC4)o2)c1` [Compound D5, 4-[5-(2-Thienyl)-1,3,4-oxadiazol-2-yl]-1,4-diazabicyclo[3.2.2]nonane fumaric acid salt], the IC50 stood at 22 nM.

System in the next data set: not given
Assay: not given
Conditions: not given
By melting point is commonly meant the temperature of the solid-liquid transition. Turning to `O=C(O)/C=C/C(=O)O.c1ccc(-c2ccc(-c3nnc(N4CCN5CCC4CC5)o3)cc2)cc1`, the melting point lay in the range of 238 to 239 °C.

Compound `O=C(O)/C=C/C(=O)O.c1cncc(-c2nnc(N3CCN4CCC3CC4)o2)c1` had a melting point of 176.8 to 177.5 °C.

Turning to `O=C(O)/C=C/C(=O)O.c1coc(-c2nnc(N3CCN4CCC3CC4)o2)c1`, the melting point is 175 °C.

With `COc1ccc(-c2nnc(N3CCN4CCC3CC4)o2)cc1.O=C(O)/C=C/C(=O)O`, the melting point lay in the range of 190.1 to 191.2 °C.

In the case of `COc1cccc(-c2nnc(N3CCN4CCC3CC4)o2)c1.O=C(O)/C=C/C(=O)O`, the melting point fell in the range of 126 to 164 °C.

`O=C(O)/C=C/C(=O)O.c1cc(-c2nnc(N3CCN4CCC3CC4)o2)ccn1`: the melting point lay within 165.9 to 166.8 °C.

As to `O=C(O)/C=C/C(=O)O.c1ccc2cc(-c3nnc(N4CCN5CCC4CC5)o3)ccc2c1`, the melting point was 194.6 to 195.7 °C.

Compound `O=C(O)/C=C/C(=O)O.c1csc(-c2nnc(N3CCN4CCC3CC4)o2)c1` [Compound D5, 4-[5-(2-Thienyl)-1,3,4-oxadiazol-2-yl]-1,4-diazabicyclo[3.2.2]nonane fumaric acid salt] displayed a melting point of 161.8 to 162.7 °C.

On to `Clc1ccc(-c2nnc(N3CCN4CCC3CC4)o2)cc1.O=C(O)/C=C/C(=O)O`, for which the melting point lay within 184.3 to 185.8 °C.
